Results on 34 compounds are retold here after patent US7632845B2, “Phenyl quinolines and their use as estrogenic agents” (Wyeth, priority 2003, dated 2009).

The target of assay [1] is T1, ERβ (Homo sapiens, UniProt Q92731).
T1 construct: made in house; host or cells: E. coli
Put plainly: Competition with [3H]-17β-estradiol for ERβ ligand binding domain. As to conditions: for IC50: crude E. coli lysate expressing human ERβ LBD (D, E, & F), 2 nM [3H]-17β-estradiol, 5-15 hours at room temperature; for α/β: receptor selectivity, ratio ERα IC50 / ERβ IC50. On the procedure:
(§1) Representative examples of the invention were evaluated for their ability to compete with 17β-estradiol for both ERα and ERβ. This test procedure provides the methodology for one to determine whether a particular compound binds to the estrogen receptor (and is therefore “estrogenic”) and whether there is selectivity for ERα or ERβ. […] 17β-estradiol is included as a standard reference for compalison. The procedure used is briefly described below. A crude lysate of E. coli expressing the estrogen receptor ligand binding domains (D, E, & F) of human ERα or ERβ was prepared. Both receptors and compounds were diluted in 1× Dulbecco's PBS (DPBS) supplemented with 1 mM EDTA. Using a high binding masked microtiter plate, 100 uL of receptor (1 uG/well) was combined with 2 nM [^3H]-17β-estradiol and various concentrations of compound. After between 5 and 15 hours at room temperature, the plates were washed with DPBS/1 mM EDTA and bound radioactivity determined by liquid scintillation counting.

Assay [2] has as its target T2, ERα (Homo sapiens, UniProt P03372).
T2 construct: made in house; host or cells: E. coli
T2 sequence (P03372 311-547 limits assumed): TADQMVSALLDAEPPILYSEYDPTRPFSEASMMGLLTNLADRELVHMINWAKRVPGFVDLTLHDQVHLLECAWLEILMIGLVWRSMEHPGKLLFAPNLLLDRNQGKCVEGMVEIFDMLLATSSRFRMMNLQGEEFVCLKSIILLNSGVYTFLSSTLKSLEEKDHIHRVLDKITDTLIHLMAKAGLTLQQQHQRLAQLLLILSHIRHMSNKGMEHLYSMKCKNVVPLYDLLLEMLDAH
The experiment in a line: Competition with [3H]-17β-estradiol for ERα ligand binding domain. As to conditions: crude E. coli lysate expressing human ERα LBD (D, E, & F); 2 nM [3H]-17β-estradiol; 5-15 hours at room temperature. As for the experimental part:
as §1

T1 sequence (Q92731 264-498 limits assumed): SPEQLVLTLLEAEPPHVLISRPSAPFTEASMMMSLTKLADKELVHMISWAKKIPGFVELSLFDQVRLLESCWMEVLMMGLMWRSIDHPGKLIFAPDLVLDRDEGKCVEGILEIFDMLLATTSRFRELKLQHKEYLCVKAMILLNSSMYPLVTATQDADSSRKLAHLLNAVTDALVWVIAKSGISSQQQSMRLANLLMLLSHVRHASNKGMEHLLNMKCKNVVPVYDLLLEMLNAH

Usually IC50 stands for the concentration that gives 50% inhibition. The low end stands for inhibition by little substance, the high end for a need for much substance. On to `Oc1ccc(-c2cc(Cl)c3cc(O)ccc3n2)cc1` [Cpd 5a, 4-Chloro-2-(4-hydroxyphenyl)quinolin-6-ol], for which, in assay [1], the concentration for half-maximal inhibition (IC50) is 4.6 nM and the α/β was 46. Moreover, the half-inhibitory concentration (IC50) in assay [2] was 213 nM.
Compound `Oc1ccc2nc(-c3ccc(O)c(F)c3)cc(Cl)c2c1` [Cpd 5b, 4-Chloro-2-(3-fluoro-4-hydroxyphenyl)quinolin-6-ol] displayed a half-maximal inhibitory concentration (IC50) in assay [2] of 246 nM.
With `Oc1ccc2nc(-c3ccc(O)c(F)c3)cc(Br)c2c1` [Cpd 6b, 4-Bromo-2-(3-fluoro-4-hydroxyphenyl)quinolin-6-ol], the results for the 50% inhibitory concentration (IC50) in assay [1] and in assay [2] were 3.4 nM and 283 nM, respectively.
Consider `Oc1ccc2nc(-c3cc(F)c(O)c(F)c3)cc(Br)c2c1` [Cpd 6c, 4-Bromo-2-(3,5-difluoro-4-hydroxyphenyl)quinolin-6-ol], for which, in assay [1], the concentration for half-maximal inhibition (IC50) turned out to be 42 nM and the α/β was found to be 23. In assay [2], this compound showed an IC50 of 976 nM.
Take `CC(=O)Oc1ccc2nc(-c3ccc(OC(C)=O)c(F)c3)cc(Br)c2c1` [Cpd 7, 6-Acetoxy-4-bromo-2-(3-fluoro-4-acetoxyphenyl)quinoline]: in assay [1], the IC50 is 198 nM and the α/β is on record as more than 25. The compound further returned an IC50 in assay [2] of more than 5000 nM.
With `Oc1ccc(-c2cc(I)c3cc(O)ccc3n2)cc1` [Cpd 8a, 2-(4-Hydroxyphenyl)-4-iodoquinolin-6-ol], in assay [1], the concentration for half-maximal inhibition (IC50) stood at 2.4 nM and the α/β was 43. The compound further came in with a half-inhibitory concentration (IC50) in assay [2] of 103 nM.
Take `Oc1ccc2nc(-c3ccc(O)c(F)c3)cc(I)c2c1` [Cpd 8b, 2-(3-Fluoro-4-hydroxyphenyl)-4-iodoquinolin-6-ol]: in assay [1], the half-maximal inhibitory concentration (IC50) is 5 nM and the α/β stood at 73. The compound also returned an IC50 in assay [2] of 365 nM.
Take `C=Cc1cc(-c2ccc(O)c(F)c2)nc2ccc(O)cc12` [Cpd 11b, 2-(3-Fluoro-4-hydroxyphenyl)-4-vinylquinolin-6-ol]: in assay [1], the concentration for half-maximal inhibition (IC50) turned out to be 37 nM and the α/β is 12. The IC50 in assay [2] was determined as 458 nM.
With `CCc1cc(-c2ccc(O)cc2)nc2ccc(O)cc12` [Cpd 12a, 4-Ethyl-2-(4-hydroxyphenyl)quinolin-6-ol], in assay [1], the concentration for half-maximal inhibition (IC50) amounted to 61 nM and the α/β is 14. In assay [2], the half-maximal inhibitory concentration (IC50) is 837 nM.
On to `CCc1cc(-c2ccc(O)c(F)c2)nc2ccc(O)cc12` [Cpd 12b, 4-Ethyl-2-(3-fluoro-4-hydroxyphenyl)quinolin-6-ol], for which, in assay [1], the IC50 worked out at 40 nM and the α/β was 26. The half-maximal inhibitory concentration (IC50) in assay [2] is 1030 nM.
On the same counts, the results for `C[Si](C)(C)C#Cc1cc(-c2ccc(O)cc2)nc2ccc(O)cc12` [Cpd 13a, 2-(4-Hydroxyphenyl)-4-[(trimethylsilyl)ethynyl]quinolin-6-ol] are 161 nM, 9 and 1510 nM.
On the same counts, the results for `C[Si](C)(C)C#Cc1cc(-c2ccc(O)c(F)c2)nc2ccc(O)cc12` [Cpd 13b, 2-(3-Fluoro-4-hydroxyphenyl)-4-[(trimethylsilyl)ethynyl]quinolin-6-ol] are 153 nM, 11 and 1690 nM.
As to `C#Cc1cc(-c2ccc(O)cc2)nc2ccc(O)cc12` [Cpd 14a, 4-Ethynyl-2-(4-hydroxyphenyl)quinolin-6-ol], the half-inhibitory concentration (IC50) stood at 76 nM in assay [1] and 1500 nM in assay [2]. Also, the α/β in assay [1] came out at 20.
`C#Cc1cc(-c2ccc(O)c(F)c2)nc2ccc(O)cc12` [Cpd 14b, 4-Ethynyl-2-(3-fluoro-4-hydroxyphenyl)quinolin-6-ol]: in assay [1], the IC50 stood at 32 nM and the α/β was 106. The half-maximal inhibitory concentration (IC50) in assay [2] was found to be 3410 nM.
On the same counts, the results for `Oc1ccc2nc(-c3ccc(O)c(F)c3)cc(C#Cc3ccccc3)c2c1` [Cpd 15, 2-(3-Fluoro-4-hydroxyphenyl)-4-(phenylethynyl)quinolin-6-ol] are 195 nM, 62 and 12000 nM.
On the same counts, the results for `CC(=O)c1cc(-c2ccc(O)cc2)nc2ccc(O)cc12` [Cpd 16a, 4-Acetyl-2-(4-hydroxyphenyl)quinolin-6-ol] are 211 nM, 14 and 2940 nM.
On to `CC(=O)c1cc(-c2ccc(O)c(F)c2)nc2ccc(O)cc12` [Cpd 16b, 4-Acetyl-2-(3-fluoro-4-hydroxyphenyl)quinolin-6-ol], for which the half-inhibitory concentration (IC50) in assay [2] was 3370 nM.
As for `CC(O)c1cc(-c2ccc(O)cc2)nc2ccc(O)cc12` (centres unmarked) [Cpd 17a, 4-(1-Hydroxyethyl)-2-(4-hydroxyphenyl)quinolin-6-ol], the IC50 in assay [1] and in assay [2] was more than 5000 nM in each case.
`Oc1ccc2nc(-c3ccc(O)c(F)c3)cc(-c3nccs3)c2c1` [Cpd 18, 2-(3-Fluoro-4-hydroxyphenyl)-4-thiazol-2-yl-quinolin-6-ol]: in assay [1], the half-inhibitory concentration (IC50) worked out at 208 nM and the α/β was 10. In assay [2], this compound came in with an IC50 of 2160 nM.
For `Oc1ccc2nc(-c3ccc(O)c(F)c3)cc(-c3ccccc3)c2c1` [Cpd 20, 2-(3-Fluoro-4-hydroxyphenyl)-4-phenylquinolin-6-ol] the same measures were 128 nM, 11 and 1380 nM.
Turning to `Cc1ccc(-c2cc(-c3ccc(O)c(F)c3)nc3ccc(O)cc23)cc1` [Cpd 21, 2-(3-Fluoro-4-hydroxyphenyl)-4-(4-methylphenyl)quinolin-6-ol], in assay [1], the 50% inhibitory concentration (IC50) amounted to 112 nM and the α/β amounted to 26. The compound further came in with an IC50 in assay [2] of 2920 nM.
With `Oc1ccc2nc(-c3ccc(O)c(F)c3)cc(-c3ccc(F)cc3)c2c1` [Cpd 22, 2-(3-Fluoro-4-hydroxyphenyl)-4-(4-fluorophenyl)quinolin-6-ol], in assay [1], the IC50 is 33 nM and the α/β stood at 18. The same compound yielded an IC50 in assay [2] of 591 nM.
For `Oc1ccc2nc(-c3ccc(O)c(F)c3)cc(-c3ccc(Cl)cc3)c2c1` [Cpd 23, 4-(4-Chlorophenyl)-2-(3-fluoro-4-hydroxyphenyl)quinolin-6-ol], in assay [1], the half-maximal inhibitory concentration (IC50) was determined as 146 nM and the α/β is given as more than 6. The compound further had a half-inhibitory concentration (IC50) in assay [2] of more than 1000 nM.
On the same counts, the results for `N#Cc1ccc(-c2cc(-c3ccc(O)c(F)c3)nc3ccc(O)cc23)cc1` [Cpd 24, 4-(4-Cyanophenyl)-2-(3-fluoro-4-hydroxyphenyl)quinolin-6-ol] are 53 nM, 34 and 1810 nM.
In the case of `Oc1ccc2nc(-c3ccc(O)c(F)c3)cc(-c3ccc(C(F)(F)F)cc3)c2c1` [Cpd 25, 2-(3-Fluoro-4-hydroxyphenyl)-4-(4-trifluoromethylphenyl)quinolin-6-ol], the concentration for half-maximal inhibition (IC50) in assay [1] and in assay [2] was more than 5000 nM each time.
In the case of `Oc1ccc2nc(-c3ccc(O)c(F)c3)cc(-c3ccsc3)c2c1` [Cpd 26, 2-(3-Fluoro-4-hydroxyphenyl)-4-thiophen-3-yl-quinolin-6-ol], the half-inhibitory concentration (IC50) amounted to 75 nM in assay [1] and 868 nM in assay [2]. Also, in assay [1], the α/β is reported as 12.
`Oc1ccc2nc(-c3ccc(O)c(F)c3)cc(-c3ccncc3)c2c1` [Cpd 27, 2-(3-Fluoro-4-hydroxyphenyl)-4-(4-pyridinyl)quinolin-6-ol]: in assay [1], the IC50 was 78 nM and the α/β was more than 12. In addition, in assay [2], the IC50 was more than 1000 nM.
As to `Oc1ccc2nc(-c3ccc(O)c(F)c3)cc(-c3cncnc3)c2c1` [Cpd 28, 2-(3-Fluoro-4-hydroxyphenyl)-4-(5-pyrimidinyl)quinolin-6-ol], in assay [1], the IC50 worked out at 968 nM and the α/β came to 3. The half-inhibitory concentration (IC50) in assay [2] was 3310 nM.
On the same counts, the results for `Oc1ccc(-c2ccc3c(Cl)c(O)ccc3n2)cc1` [Cpd 31, 5-Chloro-2-(4-hydroxyphenyl)quinolin-6-ol] are 38 nM, 22 and 840 nM.
For `Oc1ccc(-c2ccc3c(Br)c(O)ccc3n2)cc1` [Cpd 32, 5-Bromo-2-(4-hydroxyphenyl)quinolin-6-ol], the IC50 in assay [1] turned out to be 90 nM; in assay [2], 1190 nM. Moreover, the α/β in assay [1] turned out to be 13.
For `Oc1ccc(-c2nc3ccc(O)cc3c(Br)c2Cl)cc1` [Cpd 35a, 4-Bromo-3-chloro-2-(4-hydroxyphenyl)quinolin-6-ol], in assay [1], the IC50 is 1.25 nM and the α/β amounted to 62. In addition, in assay [2], the IC50 amounted to 78 nM.
Regarding `Oc1ccc2nc(-c3ccc(O)c(F)c3)c(Cl)c(Br)c2c1` [Cpd 35b, 4-Bromo-3-chloro-2-(3-fluoro-4-hydroxyphenyl)quinolin-6-ol], in assay [1], the half-inhibitory concentration (IC50) is 3.7 nM and the α/β is 24. The compound further returned an IC50 in assay [2] of 90 nM.
In the case of `Oc1ccc(-c2nc3ccc(O)cc3c(-c3ccc(F)cc3)c2Cl)cc1` [Cpd 36, 3-Chloro-4-(4-fluorophenyl)-2-(4-hydroxyphenyl)quinolin-6-ol], in assay [1], the concentration for half-maximal inhibition (IC50) was 244 nM and the α/β came out at 1.4. In assay [2], this compound displayed an IC50 of 340 nM.
`N#Cc1c(Cl)c(-c2ccc(O)c(F)c2)nc2ccc(O)cc12` [Cpd 37, 3-Chloro-4-cyano-2-(3-fluoro-4-hydroxyphenyl)quinolin-6-ol]: the 50% inhibitory concentration (IC50) in assay [1] was 26 nM; in assay [2] it was 318 nM. In assay [1], the α/β came to 12.
